A short description of the data set: recombinant UMI read abundance after kanamycin selection (control-corrected) (log10(CPM+1)); higher = more efficient recombination; extreme values may be limits of the assay; sequences stand for … in AGTGCAGAGAAAATCGGCCAGTTTTCTCTGCCTGCAGTCCGCATGCCGTGGGACCCCTTGGGTTCTAACCTGTTGCCTAGATTTATGCAGCGGACTGCCTTTCTCCCAAAGTGATAAACCGG…AGGTTGGTTTCACT; site = the 11-nt donor. The method, boiled down: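 Pooled Escherichia coli screen of donor and donor-binding-loop pairs for the IS621 bridge recombinase. Each pair sits with a 12-nt UMI on a plasmid carrying a promoterless kanamycin gene. The library was co-electroporated with a target plasmid encoding a fixed target and T7-inducible recombinase, then plated with IPTG (0.07 mM) plus kanamycin, or unselected, each in two replicates. Recombinant UMIs were PCR-amplified across the donor–target junction and sequenced. Counts became CPM, averaged over replicates, scaled by control-derived factors and reported as log10(CPM+1).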
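Note: IS621 bridge recombinase in Escherichia coli cells against a fixed T5 target plasmid.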

Turning to “CGGAATCCATGGACCGGTTTTCCCGGTAATCCGTATTTGTT (site CGGAGTCCTAT)”, the “recombinant UMI read abundance (log10)” value was determined as 0.

Regarding “CGGAATCCATGGACCGGTTTTCCCGGTAATCCGTATTTGTT (site CGGAGTCCTGA)”, the “recombinant UMI read abundance (log10)” value stood at 0.

As to “CGGAATCCATGGACCGGTTTTCCCGGTAATCCGTATTTGTT (site CGGATACCTAA)”, the “recombinant UMI read abundance (log10)” value was 0.0155.

With “CGGAATCCATGGACCGGTTTTCCCGGTAATCCGTATTTGTT (site CGGATTCCTAA)”, the “recombinant UMI read abundance (log10)” value was 0.0126.

Turning to “CGGAATCCATGGACCGGTTTTCCCGGTAATCCGTATTTGTT (site CGGATTCCTAG)”, the “recombinant UMI read abundance (log10)” value is 0.

Consider “CGGAATCCATGGACCGGTTTTCCCGGTAATCCGTATTTGTT (site CGGATTCCTTA)”, for which the “recombinant UMI read abundance (log10)” value came out at 0.

For the sequence “CGGAATCCATGGACCGGTTTTCCCGGTAATCCGTATTTGTT (site CGGATTTCTAA)”, the “recombinant UMI read abundance (log10)” value was determined as 0.

As to “CGGAATCCATGGACCGGTTTTCCCGGTAATCCGTATTTGTT (site CGGCACCCTAA)”, the “recombinant UMI read abundance (log10)” value is 0.0425.

Take “CGGAATCCATGGACCGGTTTTCCCGGTAATCCGTATTTGTT (site CGGCATCCTAA)”: the “recombinant UMI read abundance (log10)” value was 0.0145.

With “CGGAATCCATGGACCGGTTTTCCCGGTAATCCGTATTTGTT (site CGGCATCCTAC)”, the “recombinant UMI read abundance (log10)” value is 0.011.

On to “CGGAATCCATGGACCGGTTTTCCCGGTAATCCGTATTTGTT (site CGGCATCCTCA)”, for which the “recombinant UMI read abundance (log10)” value came to 0.00889.

In the case of “CGGAATCCATGGACCGGTTTTCCCGGTAATCCGTATTTGTT (site CGGCATGCTAA)”, the “recombinant UMI read abundance (log10)” value is 0.0214.

Take “CGGAATCCATGGACCGGTTTTCCCGGTAATCCGTATTTGTT (site CGGCCTCCTAA)”: the “recombinant UMI read abundance (log10)” value was 0.

As to “CGGAATCCATGGACCGGTTTTCCCGGTAATCCGTATTTGTT (site CGGGAACCTAA)”, the “recombinant UMI read abundance (log10)” value was 0.00313.

For the sequence “CGGAATCCATGGACCGGTTTTCCCGGTAATCCGTATTTGTT (site CGGGATCCTAA)”, the “recombinant UMI read abundance (log10)” value was found to be 0.0888.

Regarding “CGGAATCCATGGACCGGTTTTCCCGGTAATCCGTATTTGTT (site CGGGATCCTAG)”, the “recombinant UMI read abundance (log10)” value was determined as 0.

As for “CGGAATCCATGGACCGGTTTTCCCGGTAATCCGTATTTGTT (site CGGGATCCTTA)”, the “recombinant UMI read abundance (log10)” value came out at 0.00923.

As to “CGGAATCCATGGACCGGTTTTCCCGGTAATCCGTATTTGTT (site CGGGATTCTAA)”, the “recombinant UMI read abundance (log10)” value worked out at 0.

Take “CGGAATCCATGGACCGGTTTTCCCGGTAATCCGTATTTGTT (site CGGGTTCCTAA)”: the “recombinant UMI read abundance (log10)” value stood at 0.0107.

Turning to “CGGAATCCATGGACCGGTTTTCCCGGTAATCCGTATTTGTT (site CGGTAGCCTAA)”, the “recombinant UMI read abundance (log10)” value came out at 0.0806.

For “CGGAATCCATGGACCGGTTTTCCCGGTAATCCGTATTTGTT (site CGGTATACTAA)”, the “recombinant UMI read abundance (log10)” value was found to be 0.0163.

For “CGGAATCCATGGACCGGTTTTCCCGGTAATCCGTATTTGTT (site CGGTATCCTAA)”, the “recombinant UMI read abundance (log10)” value stood at 0.107.

Turning to “CGGAATCCATGGACCGGTTTTCCCGGTAATCCGTATTTGTT (site CGGTATCCTAT)”, the “recombinant UMI read abundance (log10)” value was 0.

For “CGGAATCCATGGACCGGTTTTCCCGGTAATCCGTATTTGTT (site CGGTATCCTGA)”, the “recombinant UMI read abundance (log10)” value came to 0.

Consider “CGGAATCCATGGACCGGTTTTCCCGGTAATCCGTATTTGTT (site CGGTGTCCTAA)”, for which the “recombinant UMI read abundance (log10)” value stood at 0.0136.

Consider “CGGAATCCATGGACCGGTTTTCCCGGTAATCCGTATTTGTT (site CGTAAGCCTAA)”, for which the “recombinant UMI read abundance (log10)” value is 0.0106.

With “CGGAATCCATGGACCGGTTTTCCCGGTAATCCGTATTTGTT (site CGTAATACTAA)”, the “recombinant UMI read abundance (log10)” value stood at 0.00407.

Regarding “CGGAATCCATGGACCGGTTTTCCCGGTAATCCGTATTTGTT (site CGTAATCCTAA)”, the “recombinant UMI read abundance (log10)” value worked out at 0.0103.

“CGGAATCCATGGACCGGTTTTCCCGGTAATCCGTATTTGTT (site CGTAATCCTAT)”: the “recombinant UMI read abundance (log10)” value is 0.

The values above are taken from the supplement of paper PMC11208160.
